Ten molecules from US20230059136A1, “THE COMPOUNDS AND COMPOSITIONS FOR TREATING CONDITIONS ASSOCIATED WITH NLRP ACTIVITY” (Novartis AG, priority 2018, published 2023) can be followed below.

The test system of this assay is IL-1β production in PMA-differentiated THP-1 cells. The assay is described as follows: IL-1β production in PMA-differentiated THP-1 cells stimulated with gramicidin (hTHP-1 assay containing 2% fetal bovine serum). The conditions noted are these: Table B1; 2% fetal bovine serum; class symbols; read-out: hTHP-1 IC50 (Average IC50 of compounds in hTHP-1 assay). Format: cell-based, human. The procedure: Procedure 1: IL-1β Production in PMA-Differentiated THP-1 Cells Stimulated with Gramicidin.
THP-1 cells were purchased from the American Type Culture Collection and sub-cultured according to instructions from the supplier. Cells were cultured in complete RPMI 1640 (containing 10% heat inactivated FBS, penicillin (100 units/ml) and streptomycin (100 μg/ml)), and maintained in log phase prior to experimental setup. Prior to the experiment, compounds were dissolved in dimethyl sulfoxide (DMSO) to generate a 30 mM stock. The compound stock was first pre-diluted in DMSO to 3, 0.34, 0.042 and 0.0083 mM intermediate concentrations and subsequently spotted using Echo550 liquid handler into an empty 384-well assay plate to achieve desired final concentration (e.g. 100, 33, 11, 3.7, 1.2, 0.41, 0.14, 0.046, 0.015, 0.0051, 0.0017 μM). DMSO was backfilled in the plate to achieve a final DMSO assay concentration of 0.37%. The plate was then sealed and stored at room temperature until required.
THP-1 cells were treated with PMA (Phorbol 12-myristate 13-acetate) (20 ng/ml) for 16-18 hours. On the day of the experiment the media was removed and adherent cells were detached with trypsin for 5 minutes. Cells were then harvested, washed with complete RPMI 1640, spun down, and resuspended in RPMI 1640 (containing 2% heat inactivated FBS, penicillin (100 units/ml) and streptomycin (100 μg/ml). The cells were plated in the 384-well assay plate containing the spotted compounds at a density of 50,000 cells/well (final assay volume 50 μl). Cells were incubated with compounds for 1 hour and then stimulated with gramicidin (5 μM) (Enzo) for 2 hours. Plates were then centrifuged at 340 g for 5 min. Cell free supernatant (40 μL) was collected using a 96-channel PlateMaster (Gilson) and the production of IL-1β was evaluated by HTRF (cisbio). The plates were incubated for 18 h at 4° C. and read using the preset HTRF program (donor emission at 620 nm, acceptor emission at 668 nm) of the SpectraMax i3x spectrophotometer (Molecular Devices, software SoftMax 6). A vehicle only control and a dose titration of CRID3 (100-0.0017 μM) were run concurrently with each experiment.
Procedure 2: IL-1β Production in PMA-Differentiated THP-1 Cells Stimulated with Gramicidin.
THP-1 cells were purchased from the American Type Culture Collection and sub-cultured according to instructions from the supplier. Prior to experiments, cells were cultured in complete RPMI 1640 (containing 10% heat inactivated FBS, penicillin (100 units/ml) and streptomycin (100 μg/ml)), and maintained in log phase prior to experimental setup. Prior to the experiment THP-1 were treated with PMA (Phorbol 12-myristate 13-acetate) (20 ng/ml) for 16-18 hours. Compounds were dissolved in dimethyl sulfoxide (DMSO) to generate a 30 mM stock. On the day of the experiment the media was removed and adherent cells were detached with trypsin for 5 minutes. Cells were then harvested, washed with complete RPMI 1640, spun down, resuspended in RPMI 1640 (containing 2% heat inactivated FBS, penicillin (100 units/ml) and streptomycin (100 μg/ml). The cells were plated in a 384-well plate at a density of 50,000 cells/well (final assay volume 50 μl). Compounds were first dissolved in assay medium to obtain a 5× top concentration of 500 μM. 10 step dilutions (1:3) were then undertaken in assay medium containing 1.67% DMSO. 5× compound solutions were added to the culture medium to achieve desired final concentration (e.g. 100, 33, 11, 3.7, 1.2, 0.41, 0.14, 0.046, 0.015, 0.0051, 0.0017 μM). Final DMSO concentration was at 0.37%. Cells were incubated with compounds for 1 hour and then stimulated with gramicidin (5 μM) (Enzo) for 2 hours. Plates were then centrifuged at 340 g for 5 min. Cell free supernatant (40 μL) was collected using a 96-channel PlateMaster (Gilson) and the production of IL-1β was evaluated by HTRF (cisbio). A vehicle only control and a dose titration of CRID3 (100-0.0017 μM) were run concurrently with each experiment. […]

One may read the IC50 as the point on the concentration scale where inhibition reaches its midpoint. `CCc1cc(OC(F)F)cc(C(C)C)c1CC(=O)N=S(N)(=O)c1sc(C(C)(C)O)cc1F` (single isomer, unassigned) [Example 79, (R)- or (S)-2-(4-(difluoromethoxy)-2-ethyl-6-isopropylphenyl)-N-(3-fluoro-5-(2-hydroxypropan-2-yl)thiophen-2-ylsulfonimidoyl)acetamide]: the IC50 was in the range of 5000 to 30000 nM. With `CC(C)c1cc(C(F)F)cc(C(C)C)c1CC(=O)N=S(N)(=O)c1sc(C(C)(C)O)cc1F` (single isomer, unassigned) [Example 80, (S)- or (R)-2-(4-(difIuoromethyl)-2,6-diisopropylphenyl)-N-(3-fluoro-5-(2-hydroxypropan-2-yl)thiophen-2-ylsulfonimidoyl)acetamide] the figure was 8 to 40 nM; with `CC(C)c1cc(C(F)F)cc(C(C)C)c1CC(=O)N=S(N)(=O)c1sc(C(C)(C)O)cc1F` (single isomer, unassigned) [Example 81, (R)- or (S)-2-(4-(difluoromethyl)-2,6-diisopropylphenyl)-N-(3-fluoro-5-(2-hydroxypropan-2-yl)thiophen-2-ylsulfonimidoyl)acetamide], 200 to 1000 nM; with `CC(C)c1cc(C#N)cc(C(C)C)c1CC(=O)N=S(N)(=O)c1ncc(C(C)(C)O)s1` (single isomer, unassigned) [Example 82, (R)- or (S)-2-(4-cyano-2,6-diisopropylphenyl)-N-(5-(2-hydroxypropan-2-yl)thiazol-2-ylsulfonimidoyl)acetamide], 5000 to 30000 nM. The value for `CC(C)c1cc(C#N)cc(C(C)C)c1CC(=O)N=S(N)(=O)c1ncc(C(C)(C)O)s1` (single isomer, unassigned) [Example 83, (S)- or (R)-2-(4-cyano-2,6-diisopropylphenyl)-N-(5-(2-hydroxypropan-2-yl)thiazol-2-ylsulfonimidoyl)acetamide] was 40 to 200 nM. With `Cc1nc(C(C)(C)O)sc1S(N)(=O)=NC(=O)Cc1c(C(C)C)cc(OC(F)F)cc1C(C)C` (single isomer, unassigned) [Example 84, (S)- or (R)-2-(4-(difluoromethoxy)-2,6-diisopropylphenyl)-N-(2-(2-hydroxypropan-2-yl)-4-methylthiazol-5-ylsulfonimidoyl)acetamide] the figure was 40 to 200 nM; with `Cc1nc(C(C)(C)O)sc1S(N)(=O)=NC(=O)Cc1c(C(C)C)cc(OC(F)F)cc1C(C)C` (single isomer, unassigned) [Example 85, (R)- or (S)-2-(4-(difluoromethoxy)-2,6-diisopropylphenyl)-N-(2-(2-hydroxypropan-2-yl)-4-methylthiazol-5-ylsulfonimidoyl)acetamide], 5000 to 30000 nM. Consider `CC(C)c1cc(C(F)F)cc(C(C)C)c1CC(=O)N=S(N)(=O)c1ccc(C(C)(C)O)cc1F` (single isomer, unassigned) [Example 86, (S)- or (R)-2-(4-(difluoromethyl)-2,6-diisopropylphenyl)-N-(2-fluoro-4-(2-hydroxypropan-2-yl)phenylsulfonimidoyl) acetamide], for which the IC50 fell in the range of 1000 to 5000 nM.

As to `CC(C)c1cc(C(F)F)cc(C(C)C)c1CC(=O)N=S(N)(=O)c1ccc(C(C)(C)O)cc1F` (single isomer, unassigned) [Example 87, (R)- or (S)-2-(4-(difluoromethyl)-2,6-diisopropylphenyl)-N-(2-fluoro-4-(2-hydroxypropan-2-yl)phenylsulfonimidoyl) acetamide], the IC50 is 40 to 200 nM. The value for `COCc1cc(C(C)C)c(CC(=O)N=S(N)(=O)c2cc(C(C)(C)O)cs2)c(C(C)C)c1` (single isomer, unassigned) [Example 157, (R) or (S)-N-(amino(4-(2-hydroxypropan-2-yl)thiophen-2-yl)(oxo)-λ^6-sulfaneylidene)-2-(2,6-diisopropyl-4-(methoxymethyl)phenyl)acetamide] was 8 to 40 nM.
